Columns and labels:
[1] = tested on: CA20948 cells; experiment: Clonogenic assay, CA20948 cells; type: cell-based, rat
Protocol: Before irradiation of the cells, 500 cells were seeded in 6-well plates (pre-coated with poly-l-lysine) 24 h before the experiment. […] After irradiation, internalization medium containing radioligand was removed. […] Every 2 or 3 d, medium was replaced by fresh culture medium. […] The 6-well plates containing colonies were scanned with a HP-scanner at 200 dpi. The colonies in each well were counted by a clonocounter. The survival was plotted as a function of absorbed dose and fitted to linear-quadratic (LQ) or linear-exponential curves. The cell absorbed dose during the incubation period was calculated with a dosimetry model of the 6-well plate, as described by Verwijnen et al.. The 3.5 cm diameter well cavity was modeled in the Monte Carlo radiation transport code Monte Carlo N-Particle […] (version 2.5.0, Los Alamos National Laboratory, USA) with homogeneously distributed radioactivity over the 2 mL volume aqueous liquid within the cavity. […] The division the layers of the well were as followed; 18 layers of 100 μm and 8 layers of 25 μm at the bottom of the well. […] D (25μm←fluid)=Ãfluid(1)×S(25μm←fluid)=∫T0TAfluide^-λtdt×S(25μm←fluid) […] The dosimetry for the specific uptake of radioactivity in the cells was calculated with the multicellular dosimetry code MIRD cell. […] Initially 500 cells were plated over the 9.62 cm^2 surface of the well. For evenly distributed cells over the surface the mean inter-cell distance would be 770 μm. In reality the cells were more clustered to the center of the well. […] The number of disintegrations within each cell (or Time-Integrated Activity per cell ã) was calculated by integration of the decay function of ^177Lu and ^213Bi and its progeny over the 12 d irradiation time multiplied by the ƒint and ƒmem per cell. This assumes that ƒmem will remain bound to the cells and ƒint remains trapped in the cell over a period of 12 d.

[2] = tested on: BON cells; experiment: Clonogenic assay, BON cells; type: cell-based, human
Protocol: Before irradiation of the cells, 500 cells were seeded in 6-well plates (pre-coated with poly-l-lysine) 24 h before the experiment. […] After irradiation, internalization medium containing radioligand was removed. […] Every 2 or 3 d, medium was replaced by fresh culture medium. […] The 6-well plates containing colonies were scanned with a HP-scanner at 200 dpi. The colonies in each well were counted by a clonocounter. The survival was plotted as a function of absorbed dose and fitted to linear-quadratic (LQ) or linear-exponential curves. The cell absorbed dose during the incubation period was calculated with a dosimetry model of the 6-well plate, as described by Verwijnen et al.. The 3.5 cm diameter well cavity was modeled in the Monte Carlo radiation transport code Monte Carlo N-Particle […] (version 2.5.0, Los Alamos National Laboratory, USA) with homogeneously distributed radioactivity over the 2 mL volume aqueous liquid within the cavity.

SMILES: O=C([O-])CN(CCN(CC(=O)[O-])CC(=O)[O-])CCN(CC(=O)[O-])CC(=O)[O-].[213Bi+3] [^213Bi-DTPA]
- factor advantage in cell killing compared to ^177Lu-DOTATATE ([1]; 10% survival, CA20948 (abstract)): 6
- RBE at D10 compared to ^137Cs irradiation ([1]; CA20948): 2.0
- LQ model parameter α ([1]; CA20948, 1 h exposure, colonies after 12 d, n = 3): 0.74±0.08 /Gy
- D10 (absorbed dose of 10% survival) ([1]; CA20948, 1 h incubation, 12 d colony growth): 2.6 Gy
- RBE at 10% cell survival ([1]; in both low (BON) and high (CA20948) SSTR2 expressing cell lines): 1.5–2.0
- RBE at D10 compared to ^137Cs irradiation [2]: 1.8
- LQ model parameter α ([2]; 1 h exposure, colonies after 12 d, n = 3): 0.87±0.1 /Gy
- D10 (absorbed dose of 10% survival) ([2]; 1 h incubation, 12 d colony growth): 2.5 Gy
